{
  "source": "patent US10562869B2",
  "about": "“Oxadiazole compounds” (REMYND NV, priority 2014, dated 2020)",
  "data": [
    {"tested_on": "M17_3SYN cells", "assay": "Paraquat-induced cytotoxicity (LDH) in α-synuclein over-expressing M17_3SYN neuroblastoma cells", "assay_type": "cell-based, human", "settings": "Homo sapiens, Neuroblastoma cell, 48 h, toxicity inhibition (LDH) in M17_3SYN cells challenged with 6 mM paraquat, 2 days; read-out: SYN EC50", "description": "(§1) A α-synuclein expression plasmid was constructed by subcloning the NcoI/XhoI fragment from 212T-SYN(WT) (Griffioen et al., Biochem Biophys Acta (2006) 1762(3):312-318) containing the cDNA of human wild type α-synuclein correspondingly into a standard mammalian expression vector pcDNA3.1 resulting in plasmid pcDNA3.1-SYNwt. Plasmids pcDNA3.1 and pcDNA3.1-SYNwt were transfected into human neuroblastoma cells (BE-M17; ATCC No. CRL-2267™) using lipofectamine reagent and subsequently, independent clonal cell lines with the plasmids stably integrated into the genome were selected by antibiotic resistance selection (Geneticin (G418)), resulting in cell lines M17.pcDNA3 and M17_3SYN. Overexpression of α-synuclein in the M17_3SYN cell line was confirmed by Western blot analysis.\n(§2) Due to the high levels of α-synuclein, M17_3SYN cells were sensitive to paraquat, a well-known risk factor Parkinson's disease and of synuclein-dependent neuronal degeneration. Cytotoxicity of cells was measured by quantification of lactate dehydrogenase (LDH) levels. In dead cells, LDH leaked out of the cells into the medium due to a loss of plasma-membrane integrity.\n(§3) […], primary pre-cultures of M17.pcDNA3 (as possible control) and M17_3SYN cells were prepared, starting from a stock culture, at a density of 20.000-40.000 cells/cm2 in culture medium (Opti-MEM® Reduced Serum Medium with Phenol Red (Invitrogen, Cat. 31985-047) supplemented with 10% FCS, 1 mM sodium pyruvate, 1×NEAA, 500 μg/ml G418 and 0.5×antibiotic/antimycotic (ABAM)). 3 days later these primary pre-cultures were used as a starting point to make secondary pre-cultures at a density of 50.000-100.000 cells/cm^2. At the day of the experiment these secondary precultures were diluted to ˜0.5·10^6 cells/ml in detection medium (Opti-MEM® Reduced-Serum Medium without Phenol Red (Invitrogen, Cat. 11085-021) supplemented with 10% FCS, 1 mM sodium pyruvate, 1×NEAA, 500 μg/ml G418 and 0.5×ABAM) and 60 μL of this suspension was dispensed per well into a 96-well microtiter plate. After 3 hours of incubation at 37° C./5% CO2 an equal volume of detection medium containing a final concentration of 6 mM Paraquat was added and subsequently incubated for 2 days at 37° C./5% CO2. Then LDH activity was determined using the Promega Cytotox 96 Non-Radioactive cytotoxicity assay (Promega, Cat. G1780), according to the manufacturer's instructions. Cytotoxicity was defined as the ratio of LDH relative to the total LDH in the cells and supernatant.\n(§4) The assay described above using the M17_3SYN cell line allowed screening compounds for their ability to decrease cytotoxicity in PQ-challenged cells. Compounds of the invention were tested for their ability to decrease toxicity at different concentrations, ranging from low non-effective concentrations to high effective concentrations. Afterwards, a dose-dependent inhibition curve was used to calculate the EC50. A compound was considered to be active in this test when it inhibited toxicity by more than 20% relative to untreated M17_3SYN cells at a concentration of 10 μM or lower.", "units": {"EC50": "nM"}, "values": [
      {"smiles": "COc1ccc(S(=O)(=O)N2CCN(c3nc(Cc4cccc(F)c4)no3)CC2)cc1", "note": "[Cmpd084, 1-[3-(3-Fluoro-benzyl)-[1,2,4]oxadiazol-5-yl]-4-(4-methoxy-benzenesulfonyl)-piperazine]", "EC50": 5},
      {"smiles": "O=S(=O)(c1ccc(F)cc1)N1CCN(c2nc(Cc3cccc(F)c3)no2)CC1", "note": "[Cmpd085, 1-(4-Fluoro-benzenesulfonyl)-4-[3-(3-fluoro-benzyl)-[1,2,4]oxadiazol-5-yl]-piperazine]", "EC50": 250},
      {"smiles": "CC(=O)Nc1ccc(S(=O)(=O)N2CCN(c3nc(Cc4cccc(F)c4)no3)CC2)cc1", "note": "[Cmpd086, N-(4-{4-[3-(3-Fluoro-benzyl)-[1,2,4]oxadiazol-5-yl]-piperazine-1-sulfonyl}-phenyl)-acetamide]", "EC50": 522},
      {"smiles": "O=S(=O)(c1ccc(OC(F)(F)F)cc1)N1CCN(c2nc(Cc3cccc(F)c3)no2)CC1", "note": "[Cmpd087, 1-[3-(3-Fluoro-benzyl)-[1,2,4]oxadiazol-5-yl]-4-(4-trifluoromethoxy-benzenesulfonyl)-piperazine]", "EC50": 497},
      {"smiles": "O=S(=O)(c1cccc(C(F)(F)F)c1)N1CCN(c2nc(Cc3cccc(F)c3)no2)CC1", "note": "[Cmpd088, 1-[3-(3-Fluoro-benzyl)-[1,2,4]oxadiazol-5-yl]-4-(3-trifluoromethyl-benzenesulfonyl)-piperazine]", "EC50": 1840},
      {"smiles": "CCOc1ccc(S(=O)(=O)N2CCN(c3nc(Cc4cccc(F)c4)no3)CC2)cc1", "note": "[Cmpd091, 1-(4-Ethoxy-benzenesulfonyl)-4-[3-(3-fluoro-benzyl)-[1,2,4]oxadiazol-5-yl]-piperazine]", "EC50": 57},
      {"smiles": "O=S(=O)(c1ccc(OC(F)F)cc1)N1CCN(c2nc(Cc3cccc(F)c3)no2)CC1", "note": "[Cmpd092, 1-(4-Difluoromethoxy-benzenesulfonyl)-4-[3-(3-fluoro-benzyl)-[1,2,4]oxadiazol-5-yl]-piperazine]", "EC50": 47},
      {"smiles": "CC(C)Oc1ccc(S(=O)(=O)N2CCN(c3nc(Cc4cccc(F)c4)no3)CC2)cc1", "note": "[Cmpd093, 1-[3-(3-Fluoro-benzyl)-[1,2,4]oxadiazol-5-yl]-4-(4-isopropoxy-benzenesulfonyl)-piperazine]", "EC50": 326},
      {"smiles": "O=S(=O)(c1ccc2c(c1)CCO2)N1CCN(c2nc(Cc3cccc(F)c3)no2)CC1", "note": "[Cmpd095, 1-(2,3-Dihydro-benzofuran-5-sulfonyl)-4-[3-(3-fluoro-benzyl)-[1,2,4]oxadiazol-5-yl]-piperazine]", "EC50": 89},
      {"smiles": "COc1ccc(S(=O)(=O)N2CCN(c3nc(Cc4ccc(F)c(F)c4)no3)CC2)cc1", "note": "[Cmpd099, 1-[3-(3,4-Difluoro-benzyl)-[1,2,4]oxadiazol-5-yl]-4-(4-methoxy-benzenesulfonyl)-piperazine]", "EC50": 16},
      {"smiles": "CCOc1ccc(S(=O)(=O)N2CCN(c3nc(Cc4ccc(F)c(F)c4)no3)CC2)cc1", "note": "[Cmpd100, 1-[3-(3,4-Difluoro-benzyl)-[1,2,4]oxadiazol-5-yl]-4-(4-ethoxy-benzenesulfonyl)-piperazine]", "EC50": 130},
      {"smiles": "O=S(=O)(c1ccc(OC(F)F)cc1)N1CCN(c2nc(Cc3ccc(F)c(F)c3)no2)CC1", "note": "[Cmpd101, 1-[3-(3,4-Difluoro-benzyl)-[1,2,4]oxadiazol-5-yl]-4-(4-difluoromethoxy-benzenesulfonyl)-piperazine]", "EC50": 50},
      {"smiles": "CC(C)(c1ccc(F)cc1)c1noc(N2CCN(S(=O)(=O)c3ccc(OC(F)F)cc3)CC2)n1", "note": "[Cmpd114, 1-(4-Difluoromethoxy-benzenesulfonyl)-4-{3-[1-(4-fluoro-phenyl)-1-methyl-ethyl]-[1,2,4]oxadiazol-5-yl}-piperazine]", "EC50": 17},
      {"smiles": "CCOc1ccc(S(=O)(=O)N2CCN(c3nc(C(C)(C)c4ccc(F)cc4)no3)CC2)cc1", "note": "[Cmpd115, 1-(4-Ethoxy-benzenesulfonyl)-4-{3-[1-(4-fluoro-phenyl)-1-methyl-ethyl]-[1,2,4]oxadiazol-5-yl}-piperazine]", "EC50": 54},
      {"smiles": "COc1ccc(S(=O)(=O)N2CCN(c3nc(C4(c5ccc(Cl)cc5)CC4)no3)CC2)cc1", "note": "[Cmpd138, 1-{3-[1-(4-Chloro-phenyl)-cyclopropyl]-[1,2,4]oxadiazol-5-yl}-4-(4-methoxy-benzenesulfonyl)-piperazine]", "EC50": 39},
      {"smiles": "CCOc1ccc(S(=O)(=O)N2CCN(c3nc(C4(c5ccc(Cl)cc5)CC4)no3)CC2)cc1", "note": "[Cmpd139, 1-{3-[1-(4-Chloro-phenyl)-cyclopropyl]-[1,2,4]oxadiazol-5-yl}-4-(4-ethoxy-benzenesulfonyl)-piperazine]", "EC50": 356},
      {"smiles": "O=S(=O)(c1ccc(OC(F)F)cc1)N1CCN(c2nc(C3(c4ccc(Cl)cc4)CC3)no2)CC1", "note": "[Cmpd140, 1-{3-[1-(4-Chloro-phenyl)-cyclopropyl]-[1,2,4]oxadiazol-5-yl}-4-(4-difluoromethoxy-benzenesulfonyl)-piperazine]", "EC50": 44},
      {"smiles": "COc1ccc(S(=O)(=O)N2CCN(c3nc(C(F)(F)c4ccc(Cl)cc4)no3)CC2)cc1", "note": "[Cmpd142, 1-{3-[(4-Chloro-phenyl)-difluoro-methyl]-[1,2,4]oxadiazol-5-yl}-4-(4-methoxy-benzenesulfonyl)-piperazine]", "EC50": 24},
      {"smiles": "CCOc1ccc(S(=O)(=O)N2CCN(c3nc(C(F)(F)c4ccc(Cl)cc4)no3)CC2)cc1", "note": "[Cmpd143, 1-{3-[(4-Chloro-phenyl)-difluoro-methyl]-[1,2,4]oxadiazol-5-yl}-4-(4-ethoxy-benzenesulfonyl)-piperazine]", "EC50": 25},
      {"smiles": "O=S(=O)(c1ccc(OC(F)F)cc1)N1CCN(c2nc(C(F)(F)c3ccc(Cl)cc3)no2)CC1", "note": "[Cmpd144, 1-{3-[(4-Chloro-phenyl)-difluoro-methyl]-[1,2,4]oxadiazol-5-yl}-4-(4-difluoromethoxy-benzenesulfonyl)-piperazine]", "EC50": 145},
      {"smiles": "CCOc1ccc(S(=O)(=O)N2CCN(c3nc(C(F)(F)c4ccc(F)cc4)no3)CC2)cc1", "note": "[Cmpd147, 1-{3-[Difluoro-(4-fluoro-phenyl)-methyl]-[1,2,4]oxadiazol-5-yl}-4-(4-ethoxy-benzenesulfonyl)-piperazine]", "EC50": 22},
      {"smiles": "O=S(=O)(c1ccc(OC(F)F)cc1)N1CCN(c2nc(C(F)(F)c3ccc(F)cc3)no2)CC1", "note": "[Cmpd148, 1-{3-[Difluoro-(4-fluoro-phenyl)-methyl]-[1,2,4]oxadiazol-5-yl}-4-(4-difluoromethoxy-benzenesulfonyl)-piperazine]", "EC50": 34},
      {"smiles": "COc1ccc(S(=O)(=O)N2CCN(c3nc(C(C)(C)c4cccc(Cl)c4)no3)CC2)cc1", "note": "[Cmpd152, 1-{3-[1-(3-Chloro-phenyl)-1-methyl-ethyl]-[1,2,4]oxadiazol-5-yl}-4-(4-methoxy-benzenesulfonyl)-piperazine]", "EC50": 1},
      {"smiles": "CCOc1ccc(S(=O)(=O)N2CCN(c3nc(C(C)(C)c4cccc(Cl)c4)no3)CC2)cc1", "note": "[Cmpd153, 1-{3-[1-(3-Chloro-phenyl)-1-methyl-ethyl]-[1,2,4]oxadiazol-5-yl}-4-(4-ethoxy-benzenesulfonyl)-piperazine]", "EC50": 5},
      {"smiles": "CC(C)(c1cccc(Cl)c1)c1noc(N2CCN(S(=O)(=O)c3ccc(OC(F)F)cc3)CC2)n1", "note": "[Cmpd154, 1-{3-[1-(3-Chloro-phenyl)-1-methyl-ethyl]-[1,2,4]oxadiazol-5-yl}-4-(4-difluoromethoxy-benzenesulfonyl)-piperazine]", "EC50": 7},
      {"smiles": "CSc1ccc(S(=O)(=O)N2CCN(c3nc(C(C)(C)c4cccc(Cl)c4)no3)CC2)cc1", "note": "[Cmpd155, 1-{3-[1-(3-Chloro-phenyl)-1-methyl-ethyl]-[1,2,4]oxadiazol-5-yl}-4-(4-methylsulfanyl-benzenesulfonyl)-piperazine]", "EC50": 2},
      {"smiles": "COc1ccc(S(=O)(=O)N2CCN(c3nc(C(F)(F)c4ccccc4)no3)CC2)cc1", "note": "[Cmpd156, 1-[3-(Difluoro-phenyl-methyl)-[1,2,4]oxadiazol-5-yl]-4-(4-methoxy-benzenesulfonyl)-piperazine]", "EC50": 5}
    ]},
    {"tested_on": "M17_3SYN cells", "assay": "Paraquat-induced cytotoxicity (LDH) in α-synuclein over-expressing M17_3SYN neuroblastoma cells", "assay_type": "cell-based, human", "settings": "toxicity inhibition (LDH) in M17_3SYN cells challenged with 6 mM paraquat, 2 days; read-out: SYN EC50", "description": "as §1, §2, §3, §4", "units": {"EC50": "nM"}, "values": [
      {"smiles": "CC(C)Oc1ccc(S(=O)(=O)N2CCN(c3nc(Cc4cccc(F)c4)no3)CC2)cc1", "note": "[Cmpd096, 3-(3-Fluorobenzyl)-5-(4-((4-isopropoxyphenyl)sulfonyl)piperazin-1-yl)-1,2,4-oxadiazole]", "EC50": 289}
    ]}
  ]
}
